Common to all, as to assay type: cell-based
Test [1] concerns U937 cells (human monocytic cell line). Nature of the test: BzATP-induced IL-1β secretion inhibition in PMA-differentiated U937 cells. Particulars: U-937, U937 cells differentiated with PMA, read-out: IL-1β production inhibition grade (IC50). In outline:
(§1)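 Inhibition is given as IC50 (μM) in A-D bands, using distinct thresholds for TNF-α and for IL-1β. Secretion followed Pam2CSK4 stimulation (TNF-α) or BzATP stimulation (IL-1β) of compound-pretreated, PMA-differentiated U937 macrophages.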

In test [2] the test system is J774A.1 (Mouse BALB/c monocyte macrophage cell line) cells. Nature of the test: LPS+ATP-induced IL-1β secretion inhibition in J774A.1 cells. Particulars: J774.A1, 1 μM compound, graded compared to taurodeoxycholic acid (positive control), read-out: IL-1β production inhibition grade. In outline: (§2)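 Grades (A >100%, B 50–100%, C 20–50%, D <20%) express cytokine suppression by 1 μM compound relative to taurodeoxycholic acid. LPS-induced TNF-α and LPS+ATP-induced IL-1β secretion were measured in murine J774A.1 macrophage cells.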

Test [3] concerns U937 cells (human monocytic cell line). Put plainly: Pam2CSK4-induced TNF-α secretion inhibition in PMA-differentiated U937 cells. The note with it: U-937, U937 cells differentiated with PMA, read-out: TNF-α production inhibition grade (IC50). A digest of the protocol: as §1
Test [4] relates to J774A.1 (Mouse BALB/c monocyte macrophage cell line) cells. Nature of the test: LPS-induced TNF-α secretion inhibition in J774A.1 cells. Particulars: J774.A1, 1 μM compound, graded compared to taurodeoxycholic acid (positive control), read-out: TNF-α production inhibition grade. A digest of the protocol:
as §2

As usually defined, the IC50 is the point on the concentration scale where inhibition reaches its midpoint. The term inhibition denotes the drop in the measured response relative to a control, in per cent. Take `C[C@H](CCC(=O)N1CCC[C@@H]1CS(=O)(=O)O)[C@H]1CC[C@H]2[C@@H]3[C@H](O)C[C@@H]4C[C@H](O)CC[C@]4(C)[C@H]3C[C@H](O)[C@]12C` [NC20020]: the half-inhibitory concentration (IC50) in test [1] was less than 50 nM; in test [3] it was no less than 2000 nM. The inhibition at 1 µM lay within 20 to 50% in test [2] and 50 to 100% in test [4].

With `C[C@H](CCC(=O)N1CCC[C@H]1CS(=O)(=O)O)[C@H]1CC[C@H]2[C@@H]3[C@H](O)C[C@@H]4C[C@H](O)CC[C@]4(C)[C@H]3C[C@H](O)[C@]12C` [NC20021], the results for the IC50 in test [1] and in test [3] were 50 to 100 nM and 1000 to 2000 nM, respectively. Besides, the inhibition at 1 µM in test [2] and in test [4] was less than 20% in each case.

Regarding `C[C@H](CCC(=O)NC[C@H](C)S(=O)(=O)O)[C@H]1CC[C@H]2[C@@H]3[C@H](O)C[C@@H]4C[C@H](O)CC[C@]4(C)[C@H]3C[C@H](O)[C@]12C` [NC20022], the IC50 in test [1] was less than 50 nM; in test [3], 1000 to 2000 nM. The inhibition at 1 µM in test [2] and in test [4] was less than 20% each time.

Turning to `C[C@H](CCC(=O)NC[C@@H](C)S(=O)(=O)O)[C@H]1CC[C@H]2[C@@H]3[C@H](O)C[C@@H]4C[C@H](O)CC[C@]4(C)[C@H]3C[C@H](O)[C@]12C` [NC20023], the IC50 in test [1] is 50 to 100 nM; in test [3], no less than 2000 nM. Further, the inhibition at 1 µM in test [2] and in test [4] was less than 20% in each case.

In the case of `C[C@H](CCC(=O)N[C@@H](CO)CS(=O)(=O)O)[C@H]1CC[C@H]2[C@@H]3[C@H](O)C[C@@H]4C[C@H](O)CC[C@]4(C)[C@H]3C[C@H](O)[C@]12C` [NC20024], the IC50 in test [1] was no less than 200 nM; in test [3] it was less than 500 nM. Also, the inhibition at 1 µM in test [2] is 20 to 50%; in test [4] it was less than 20%.

For `C[C@H](CCC(=O)N[C@H](CO)CS(=O)(=O)O)[C@H]1CC[C@H]2[C@@H]3[C@H](O)C[C@@H]4C[C@H](O)CC[C@]4(C)[C@H]3C[C@H](O)[C@]12C` [NC20025], the IC50 in test [1] was no less than 200 nM; in test [3] it was no less than 2000 nM. For the same compound, the inhibition at 1 µM in test [2] and in test [4] was less than 20% in each case.

In the case of `C[C@H](CCC(=O)N[C@@H]1CCCC[C@@H]1S(=O)(=O)O)[C@H]1CC[C@H]2[C@@H]3[C@H](O)C[C@@H]4C[C@H](O)CC[C@]4(C)[C@H]3C[C@H](O)[C@]12C` [NC20026], the values for the IC50 in test [1] and in test [3] were 100 to 200 nM and 1000 to 2000 nM, respectively. The inhibition at 1 µM in test [2] was 50 to 100%; in test [4], less than 20%.

Regarding `C[C@H](CCC(=O)N[C@H]1CCCC[C@H]1S(=O)(=O)O)[C@H]1CC[C@H]2[C@@H]3[C@H](O)C[C@@H]4C[C@H](O)CC[C@]4(C)[C@H]3C[C@H](O)[C@]12C` [NC20027], the IC50 was less than 50 nM in test [1] and no less than 2000 nM in test [3]. For the same compound, the values for the inhibition at 1 µM in test [2] and in test [4] were greater than 100% and less than 20%, respectively.

On to `C[C@H](CCC(=O)N[C@@H](C)CS(=O)(=O)O)[C@H]1CC[C@H]2[C@@H]3[C@H](O)C[C@@H]4C[C@H](O)CC[C@]4(C)[C@H]3C[C@H](O)[C@]12C` [NC20028], for which the IC50 in test [1] is no less than 200 nM; in test [3], 1000 to 2000 nM. The inhibition at 1 µM in test [2] and in test [4] was less than 20% each time.

In the case of `C[C@H](CS(=O)(=O)O)NC(=O)CC[C@@H](C)[C@H]1CC[C@H]2[C@@H]3[C@H](O)C[C@@H]4C[C@H](O)CC[C@]4(C)[C@H]3C[C@H](O)[C@]12C` [NC20029], the figures for the IC50 in test [1] and in test [3] were 50 to 100 nM and less than 500 nM, respectively. The inhibition at 1 µM in test [2] and in test [4] was less than 20% throughout.

`CC(C)C[C@@H](CS(=O)(=O)O)NC(=O)CC[C@@H](C)[C@H]1CC[C@H]2[C@@H]3[C@H](O)C[C@@H]4C[C@H](O)CC[C@]4(C)[C@H]3C[C@H](O)[C@]12C` [NC20030]: the IC50 is no less than 200 nM in test [1] and less than 500 nM in test [3]. For the same compound, the inhibition at 1 µM in test [2] and in test [4] was less than 20% each time.

Turning to `CC(C)C[C@H](CS(=O)(=O)O)NC(=O)CC[C@@H](C)[C@H]1CC[C@H]2[C@@H]3[C@H](O)C[C@@H]4C[C@H](O)CC[C@]4(C)[C@H]3C[C@H](O)[C@]12C` [NC20031], the IC50 in test [1] was 50 to 100 nM; in test [3] it was less than 500 nM. For the same compound, the inhibition at 1 µM was 50 to 100% in test [2] and less than 20% in test [4].

In the case of `C[C@H](CCC(=O)NC1(CS(=O)(=O)O)CC1)[C@H]1CC[C@H]2[C@@H]3[C@H](O)C[C@@H]4C[C@H](O)CC[C@]4(C)[C@H]3C[C@H](O)[C@]12C` [NC20032], the half-maximal inhibitory concentration (IC50) in test [1] was less than 50 nM; in test [3], no less than 2000 nM. Further, the inhibition at 1 µM in test [2] was 50 to 100%; in test [4] it was less than 20%.

For the compound `C[C@H](CCC(=O)N1CC[C@H](S(=O)(=O)O)C1)[C@H]1CC[C@H]2[C@@H]3[C@H](O)C[C@@H]4C[C@H](O)CC[C@]4(C)[C@H]3C[C@H](O)[C@]12C` [NC20033], the values for the IC50 in test [1] and in test [3] were 50 to 100 nM and 1000 to 2000 nM, respectively. Further, the results for the inhibition at 1 µM in test [2] and in test [4] were 20 to 50% and less than 20%, respectively.

With `C[C@H](CCC(=O)N1CC[C@@H](S(=O)(=O)O)C1)[C@H]1CC[C@H]2[C@@H]3[C@H](O)C[C@@H]4C[C@H](O)CC[C@]4(C)[C@H]3C[C@H](O)[C@]12C` [NC20034], the IC50 was 50 to 100 nM in test [1] and 1000 to 2000 nM in test [3]. The inhibition at 1 µM in test [2] and in test [4] was less than 20% throughout.

`C[C@H](CCC(=O)N(CCN(C)C)CCS(=O)(=O)O)[C@H]1CC[C@H]2[C@@H]3[C@H](O)C[C@@H]4C[C@H](O)CC[C@]4(C)[C@H]3C[C@H](O)[C@]12C` [NC20035]: the IC50 is 50 to 100 nM in test [1] and 1000 to 2000 nM in test [3]. Besides, the inhibition at 1 µM in test [2] and in test [4] was less than 20% in each case.

`C[C@H](CCC(=O)N(CCS(=O)(=O)O)Cc1cccnc1)[C@H]1CC[C@H]2[C@@H]3[C@H](O)C[C@@H]4C[C@H](O)CC[C@]4(C)[C@H]3C[C@H](O)[C@]12C` [NC20036]: the IC50 in test [1] was 50 to 100 nM; in test [3] it was 500 to 1000 nM. Moreover, the inhibition at 1 µM in test [2] and in test [4] was less than 20% in each case.

In the case of `C[C@H](CCC(=O)N(CCS(=O)(=O)O)c1ccccc1)[C@H]1CC[C@H]2[C@@H]3[C@H](O)C[C@@H]4C[C@H](O)CC[C@]4(C)[C@H]3C[C@H](O)[C@]12C` [NC20037], the values for the IC50 in test [1] and in test [3] were less than 50 nM and less than 500 nM, respectively. Further, the inhibition at 1 µM is 50 to 100% in test [2] and less than 20% in test [4].

Regarding `C[C@H](CCC(=O)NCCC(=O)O)[C@H]1CC[C@H]2[C@@H]3CC[C@@H]4CC(=O)CC[C@]4(C)[C@H]3CC[C@]12C` [NC30002], the IC50 in test [1] fell in the range of 100 to 200 nM; in test [3], 1000 to 2000 nM. Also, the inhibition at 1 µM in test [2] was 50 to 100%; in test [4], less than 20%.

As to `C[C@H](CCC(=O)N(C)CCS(=O)(=O)O)[C@H]1CC[C@H]2[C@@H]3CC[C@@H]4CC(=O)CC[C@]4(C)[C@H]3CC[C@]12C` [NC30004], the IC50 in test [1] was no less than 200 nM; in test [3] it was 1000 to 2000 nM. The inhibition at 1 µM in test [2] and in test [4] was 20 to 50% in each case.

Regarding `C[C@H](CCC(=O)N(CCO)CCS(=O)(=O)O)[C@H]1CC[C@H]2[C@@H]3CC[C@@H]4CC(=O)CC[C@]4(C)[C@H]3CC[C@]12C` [NC30006], the IC50 in test [1] was no less than 200 nM; in test [3], 500 to 1000 nM. Besides, the inhibition at 1 µM in test [2] and in test [4] was less than 20% each time.

With `C[C@H](CCC(=O)N(CCS(=O)(=O)O)C1CCOCC1)[C@H]1CC[C@H]2[C@@H]3CC[C@@H]4CC(=O)CC[C@]4(C)[C@H]3CC[C@]12C` [NC30008], the concentration for half-maximal inhibition (IC50) in test [1] was no less than 200 nM; in test [3] it was 500 to 1000 nM. Further, the figures for the inhibition at 1 µM in test [2] and in test [4] were 50 to 100% and less than 20%, respectively.

For the compound `C[C@H](CCC(=O)N1CCC[C@H](S(=O)(=O)O)C1)[C@H]1CC[C@H]2[C@@H]3CC[C@@H]4CC(=O)CC[C@]4(C)[C@H]3CC[C@]12C` [NC30009], the IC50 in test [1] was no less than 200 nM; in test [3], 500 to 1000 nM. In addition, the inhibition at 1 µM in test [2] fell in the range of 20 to 50%; in test [4], 50 to 100%.

`C[C@H](CCC(=O)N1CCC[C@@H](S(=O)(=O)O)C1)[C@H]1CC[C@H]2[C@@H]3CC[C@@H]4CC(=O)CC[C@]4(C)[C@H]3CC[C@]12C` [NC30010]: the IC50 is less than 50 nM in test [1] and 500 to 1000 nM in test [3]. Besides, the inhibition at 1 µM in test [2] was 50 to 100%; in test [4], greater than 100%.

With `C[C@H](CCC(=O)N1CCC(S(=O)(=O)O)CC1)[C@H]1CC[C@H]2[C@@H]3CC[C@@H]4CC(=O)CC[C@]4(C)[C@H]3CC[C@]12C` [NC30011], the IC50 is no less than 200 nM in test [1] and 500 to 1000 nM in test [3]. In addition, the inhibition at 1 µM in test [2] and in test [4] was less than 20% each time.

The record behind these values is patent US20240391948A1, “NOVEL COMPOUND THAT INHIBITS TNF-ALPHA GENERATION AND INFLAMMASOME ACTIVITY AND PREPARATION METHOD THEREFOR” (SHAPERON INC., priority 2021, published 2024).
